Each structure is given as a SMILES string.

For experiment [1], the target named is recombinant human Cathepsin K (Homo sapiens (Human), UniProt P43235). The experiment is described as follows: Inhibition of human Cathepsin K. The class given is biochemical. Particulars: substrate Z-Gly-Pro-Arg-AMC 12.5 μM, 60 min, room temperature. An excerpt:
Inhibition of Human Cathepsin K
Materials: Microtiterplates (Optiplate-384 F were purchased from PerkinElmer (Prod. No. 6007270). The substrate Z-Gly-Pro-Arg-AMC was from Biomol (Prod.-No. P-142). L-Cysteine (Prod. No. 168149) was from Sigma. Sodium actetate was from Merck (Prod.-No. 6268.0250), EDTA was from Fluka (Prod.-No. 03680). The inhibitor E-64 was purchased from Sigma (Prod.-No. E3132). The recombinant human Cathepsin K proenzyme was purchased from Biomol (Prod. No. SE-367). All other materials were of highest grade commercially available.
The following buffers were used: Activation buffer: 32.5 mM sodium acetate, adjusted to pH 3.5 with HCl; Assay buffer: 150 mM sodium acetate, 4 mM EDTA, 20 mM L-Cysteine, adjusted to pH 5.5 with HCl,
To activate the proenzyme, 5 μl procathepsin K were mixed with 1 ul activation buffer, and incubated at room temperature for 30 min.
5 μL test compound (final concentration 0.1 nM to 100 μM) in aqua bidest (containing 4% DMSO, final DMSO concentration 1%) were mixed with 10 uL of Cathepsin K in assay buffer (final concentration 2 ng/μL) and incubated for 10 min. Then 5 μL of substrate in assay buffer (final concentration 12.5 μM) were added. The plates were then incubated at room temperature for is 60 min. Then, the reaction was stopped by adding 10 μL of E64 in assay buffer (final concentration 1 μM). The fluorescence in the wells was determined using a Molecular Devices SpectraMax M5 Fluorescence Reader (Ex 360 nm, Em 460 nm).
Each assay microtiter plate contains wells with vehicle controls (1% DMSO in bidest) as reference for non-inhibited enzyme activity (100% Ctl; high values) and wells with inhibitor (E64 in bidest+1% DMSO, final concentration 1 μM) as controls for background fluorescence (0% Ctl; low values). The analysis of the data was performed by calculating the percentage of fluorescence in the presence of test compound in comparison to the fluorescence of the vehicle control after subtracting the background fluorescence: (RFU(sample)−RFU(background))*100/(RFU(control)−RFU(background))
Data from these calculations were used to generate IC50 values for inhibition of Cathepsin K, respectively.

Experiment [2] addresses recombinant human DPPI (Cathepsin C) (Homo sapiens (Human), UniProt P53634). Description: Inhibition of human DPPI (Cathepsin C). In kind it is biochemical. Particulars: substrate Gly-Arg-AMC 50 μM, 30 min, room temperature. The text has this:
Inhibition of Human DPPI (Cathepsin C)
Materials: Microtiterplates (Optiplate-384 F) were purchased from PerkinElmer (Prod. No. 6007270). The substrate Gly-Arg-AMC was from Biotrend (Prod.-No. 808756 Custom peptide). Bovine serum albumin (BSA; Prod. No. A3059) and Dithiothreitol (DTT; Prod. No D0632) were from Sigma. TagZyme buffer was from Riedel-de-Haen (Prod.-No. 04269), NaCl was from Merck (Prod.-No. 1.06404.1000) and morpholinoethane sulfonic acid (MES), was from Serva (Prod.-No. 29834). The DPP1 inhibitor Gly-Phe-DMK was purchased from MP Biomedicals (Prod.-No. 03DK00625). The recombinant human DPPI was purchased from Prozymex. All other materials were of highest grade commercially available.
The following buffers were used: MES buffer: 25 mM MES, 50 mM NaCl, 5 mM DTT, adjusted to pH 6.0, containing 0.1% BSA; TAGZyme Buffer: 20 mM NaH2PO4, 150 mM NaCl adjusted to pH 6.0 with HCl
The recombinant human DPPI was diluted in TAGZyme buffer to 1 U/ml (38.1 μg/ml, respectively), and then activated by mixing in a 1:2 ratio with a Cysteamine aqueous solution (2 mM) and incubating for 5 min at room temperature.
Five uL test compound (final concentration 0.1 nM to 100 μM) in aqua bidest (containing 4% DMSO, final DMSO concentration 1%) were mixed with 10 μL of DPPI in MES buffer (final concentration 0.0125 ng/μL) and incubated for 10 min. Then, 5 μL of substrate in MES buffer (final concentration 50 μM) were added. The microtiter plates were then incubated at room temperature for 30 min. Then, the reaction was stopped by adding 10 μL of Gly-Phe-DMK in MES-buffer (final concentration 1 μM). The fluorescence in the wells was determined using a Molecular Devices SpectraMax M5 Fluorescence Reader (Ex 360 nm, Em 460 nm) or an Envision Fluorescence Reader (Ex 355 nm, Em 460 nm).
The analysis of the data was performed by calculating the percentage of fluorescence in the presence of test compound in comparison to the fluorescence of the vehicle control after subtracting the background fluorescence using the following formula: (RFU(sample)−RFU(background))*100/(RFU(control)−RFU(background))
Data from these calculations were used to generate IC50 values for inhibition of DPPI, respectively.

Chain of recombinant human Cathepsin K (P43235 115-329): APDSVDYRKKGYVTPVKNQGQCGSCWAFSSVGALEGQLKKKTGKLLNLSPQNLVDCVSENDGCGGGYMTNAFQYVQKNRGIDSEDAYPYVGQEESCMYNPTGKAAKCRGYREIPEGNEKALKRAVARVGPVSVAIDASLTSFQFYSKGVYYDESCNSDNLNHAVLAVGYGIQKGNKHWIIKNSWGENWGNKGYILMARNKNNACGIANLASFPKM
Chain of recombinant human DPPI (Cathepsin C) (P53634 231-394): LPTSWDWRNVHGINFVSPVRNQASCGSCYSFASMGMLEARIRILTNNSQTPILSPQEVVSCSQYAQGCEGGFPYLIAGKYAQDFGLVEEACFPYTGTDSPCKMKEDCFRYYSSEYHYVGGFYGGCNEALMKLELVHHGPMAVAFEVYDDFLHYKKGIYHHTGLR
Chain of recombinant human DPPI (Cathepsin C) (P53634 395-463): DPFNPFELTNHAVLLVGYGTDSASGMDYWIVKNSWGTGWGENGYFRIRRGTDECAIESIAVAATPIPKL
Chain of recombinant human DPPI (Cathepsin C) (P53634 25-134): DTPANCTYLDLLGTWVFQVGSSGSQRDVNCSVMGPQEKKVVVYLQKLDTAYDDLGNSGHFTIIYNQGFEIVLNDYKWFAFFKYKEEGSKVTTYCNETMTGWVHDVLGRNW

By IC50 is commonly meant the concentration that gives 50% inhibition. Consider `CN1C(=O)Cc2ccc(-c3ccc(C[C@@H](C#N)NC(=O)[C@H]4N[C@H]5CC[C@@H]4CC5)cc3)cc21` [Example 4], for which the results for the IC50 in experiment [1] and in experiment [2] were 6300 nM and 32.2 nM, respectively.

With `N#C[C@H](Cc1ccc(-c2ccc3c(c2)CNC3=O)cc1)NC(=O)[C@H]1NC2CCC1CC2` [Example 11], the IC50 in experiment [1] is 11000 nM; in experiment [2] it was 86.7 nM.

Take `CS(=O)(=O)c1cccc(-c2ccc(C[C@@H](C#N)NC(=O)[C@H]3NC4CCC3CC4)cc2)c1` [Example 10]: the IC50 in experiment [1] came to 5300 nM; in experiment [2], 73.5 nM.

`CS(=O)(=O)c1cc(-c2ccc(C[C@@H](C#N)NC(=O)[C@H]3NC4CCC3CC4)cc2)ccc1C#N` [Example 8]: the IC50 in experiment [1] amounted to 5300 nM; in experiment [2] it was 70.2 nM.

Consider `N#C[C@H](Cc1ccc(-c2ccc3c(c2)NC(=O)C3)cc1)NC(=O)[C@H]1NC2CCC1CC2` [Example 2, (2S)—N-[(1S)-cyano-2-[4-(2-oxoindolin-6-yl)phenyl]ethyl]-3-azabicyclo[2.2.2]octane-2-carboxamide], for which the IC50 in experiment [1] worked out at 4200 nM; in experiment [2] it was 50.1 nM.

Regarding `N#Cc1ccc(-c2ccc(C[C@@H](C#N)NC(=O)[C@H]3N[C@H]4CC[C@@H]3CC4)cc2)cc1F` [Example 7, (2S)—N-[(1S)-1-cyano-2-[4-(4-cyano-3-fluoro-phenyl)phenyl]ethyl]-3-azabicyclo[2.2.2]octane-2-carboxamide], the IC50 in experiment [1] was found to be 5700 nM; in experiment [2], 66.4 nM.

On to `CS(=O)(=O)Nc1cccc(-c2ccc(C[C@@H](C#N)NC(=O)[C@H]3NC4CCC3CC4)cc2)c1` [Example 12], for which the values for the IC50 in experiment [1] and in experiment [2] were 9900 nM and 97.4 nM, respectively.
